# Data taken from patent US8974737B2, “Space Disinfection” (Saban Ventures PTY Limited, priority 2005, dated 2015).
# Read-outs that look alike come from different tables or passages of the source.
# Key:
# [1] = system: Aspergillus niger; conditions: 8 cubic meters
# Source text: (§1) The components of the device included a nebuliser array, (6×2 cm diameter transducers in a circular array), a heater element, a first and second fan and a dehumidifier system. The dehumidifier used had been a small air conditioning unit positioned appropriately within the space. The purpose of the first fan was to propel nanoparticles from the heater into the space and the purpose of the second fan was to ensure an equal distribution of the aerosol to all surfaces within the space.
# (§2) Tests were conducted in an 8 cubic meter volume of cubic shape.
# (§3) Samples were coated with an inoculum at levels of approximately log 6 and air dried for 2 hours on the plastic petri dish (Techno-Plas, Australia) in a laminar flow cabinet. The samples were placed in various positions in the room including on the walls, floor and ceiling.
# (§4) Unless otherwise stated, the operating conditions were: • Solution: 35% peroxide • Temp: 25 degrees • RH: fluctuated 45% to ˜65%. Sometimes 75% • Nebulizer array 2.4 MHz • Peroxide vapour: 300-500 ppm • Air flow post heater: 400-600 cubic meters per hour. • Heater Temp: 80-90 degrees • Peroxide delivery: Optimally approximately 0.75 gram per cubic meter per minute, ie […] for the 8 cubic meter room.
# [2] = system: Bacillus stearothermophillus; conditions: at 550 ppm; on both the walls and floor
# Procedure: as §3, §4
# [3] = system: Aspergillus niger; conditions: 69 cubic meters, peroxide vapour 500 ppm, contact time 30 min
# Procedure: as §3, §4
# [4] = system: Pseudomonas aeruginosa; conditions: 8 cubic meters
# Source text: as §1, §2, §3, §4
# The dishes and lids are specifically designed to allow gas exchange with an incubator environment while keeping the dish free from external microbial contamination.
# [5] = peroxide vapour 250 ppm, contact time 5 min
# [6] = peroxide vapour 250 ppm, contact time 10 min
# [7] = peroxide vapour 250 ppm, contact time 20 min
# [8] = peroxide vapour 250 ppm, contact time 30 min
# [9] = peroxide vapour 500 ppm, contact time 5 min
# [10] = peroxide vapour 500 ppm, contact time 10 min
# [11] = peroxide vapour 500 ppm, contact time 20 min
# [12] = peroxide vapour 500 ppm, contact time 30 min
# [13] = Table 4, peroxide vapour 350 ppm, contact time 15 min
# [14] = Table 4, peroxide vapour 550 ppm, contact time 15 min
# [15] = Table 4, peroxide vapour 550 ppm, contact time 20 min
# [16] = Table 4, peroxide vapour 550 ppm, contact time 30 min
# [17] = closed carriers, peroxide vapour 300 ppm, contact time 20 min
# [18] = open carriers, peroxide vapour 50 ppm, contact time 5 min
# [19] = open carriers, peroxide vapour 50 ppm, contact time 10 min
# [20] = open carriers, peroxide vapour 50 ppm, contact time […]
# [21] = open carriers, peroxide vapour 200 ppm, contact time 5 min
# [22] = open carriers, peroxide vapour 200 ppm, contact time 10 min
# [23] = open carriers, peroxide vapour 200 ppm, contact time 20 min
# [24] = open carriers, peroxide vapour 200 ppm, contact time […]
# [25] = open carriers, peroxide vapour 350 ppm, contact time 5 min
# [26] = open carriers, peroxide vapour 350 ppm, contact time 10 min
# [27] = open carriers, peroxide vapour 350 ppm, contact time 20 min
# [28] = open carriers, peroxide vapour 350 ppm, contact time […]
smiles,measurement,setting,value
"OO [Peroxide, hydrogen peroxide]",Wall (log reduction) Closed carriers,[1]; [5],5.1 log reduction
same,Wall (log reduction) Open carriers,[1]; [5],6.3 log reduction
same,Wall (log reduction) Closed carriers,[1]; [6],6.3 log reduction
same,Wall (log reduction) Open carriers,[1]; [6],6.3 log reduction
same,Wall (log reduction) Closed carriers,[1]; [7],6.3 log reduction
same,Wall (log reduction) Open carriers,[1]; [7],6.3 log reduction
same,Wall (log reduction) Closed carriers,[1]; [8],6.3 log reduction
same,Wall (log reduction) Open carriers,[1]; [8],6.3 log reduction
same,Wall (log reduction) Closed carriers,[1]; [9],6.9 log reduction
same,Wall (log reduction) Open carriers,[1]; [9],6.9 log reduction
same,Wall (log reduction) Closed carriers,[1]; [10],6.9 log reduction
same,Wall (log reduction) Open carriers,[1]; [10],6.9 log reduction
same,Wall (log reduction) Closed carriers,[1]; [11],6.9 log reduction
same,Wall (log reduction) Open carriers,[1]; [11],6.9 log reduction
same,Wall (log reduction) Closed carriers,[1]; [12],6.9 log reduction
same,Wall (log reduction) Open carriers,[1]; [12],6.9 log reduction
same,Floor (log reduction) Closed carriers,[1]; [13],6.1 log reduction
same,Floor (log reduction) Open carriers,[1]; [13],6.5 log reduction
same,Wall (log reduction) Closed carriers,[1]; [13],5.7 log reduction
same,Wall (log reduction) Open carriers,[1]; [13],5.9 log reduction
same,Floor (log reduction) Closed carriers,[1]; [14],6.6 log reduction
same,Floor (log reduction) Open carriers,[1]; [14],6.7 log reduction
same,Wall (log reduction) Closed carriers,[1]; [14],6.3 log reduction
same,Wall (log reduction) Open carriers,[1]; [14],6.7 log reduction
same,Floor (log reduction) Closed carriers,[1]; [15],7.5 log reduction
same,Floor (log reduction) Open carriers,[1]; [15],7.5 log reduction
same,Wall (log reduction) Closed carriers,[1]; [15],7.5 log reduction
same,Wall (log reduction) Open carriers,[1]; [15],7.5 log reduction
same,Floor (log reduction) Closed carriers,[1]; [16],7.5 log reduction
same,Floor (log reduction) Open carriers,[1]; [16],7.5 log reduction
same,Wall (log reduction) Closed carriers,[1]; [16],6.6 log reduction
same,Wall (log reduction) Open carriers,[1]; [16],7.5 log reduction
same,log reductions,[2],greater than 6 log reductions
same,Floor (log reduction),[3]; closed,6.7 log reduction
same,Wall (log reduction),[3]; closed,6.7 log reduction
same,Floor (log reduction),[3]; open,6.7 log reduction
same,Wall (log reduction),[3]; open,6.7 log reduction
same,Wall (log reduction),"[4]; closed carriers, peroxide vapour 300 ppm, contact time 5 min",6.7 log reduction
same,Wall (log reduction),"[4]; closed carriers, peroxide vapour 300 ppm, contact time 10 min",6.3 log reduction
same,Floor (log reduction),[4]; [17],5.8 log reduction
same,Wall (log reduction),[4]; [17],6.7 log reduction
same,Floor (log reduction),[4]; [18],TNTC
same,Wall (log reduction),[4]; [18],3.6 log reduction
same,Floor (log reduction),[4]; [19],TNTC
same,Wall (log reduction),[4]; [19],4.3 log reduction
same,Floor (log reduction),[4]; [20],TNTC
same,Wall (log reduction),[4]; [20],3.5 log reduction
same,Floor (log reduction),[4]; [21],5.2 log reduction
same,Wall (log reduction),[4]; [21],5.7 log reduction
same,Floor (log reduction),[4]; [22],3.4 log reduction
same,Wall (log reduction),[4]; [22],5.7 log reduction
same,Floor (log reduction),[4]; [23],5.7 log reduction
same,Wall (log reduction),[4]; [23],5.7 log reduction
same,Floor (log reduction),[4]; [24],4.4 log reduction
same,Wall (log reduction),[4]; [24],5.7 log reduction
same,Floor (log reduction),[4]; [25],6.1 log reduction
same,Wall (log reduction),[4]; [25],5.8 log reduction
same,Floor (log reduction),[4]; [26],6.1 log reduction
same,Wall (log reduction),[4]; [26],6.1 log reduction
same,Floor (log reduction),[4]; [27],6.1 log reduction
same,Wall (log reduction),[4]; [27],6.1 log reduction
same,Floor (log reduction),[4]; [28],6.1 log reduction
same,Wall (log reduction),[4]; [28],4.4 log reduction
